Source: patent US10167262B2, “Herbicidal substituted 3-arylpyrazoles” (FMC CORPORATION, priority 2014, dated 2019)
Where two headings read alike, the source gives them in different places.

Key:
Type in all cases: in vivo
[1] = test system: Italian ryegrass (Lolium multiflorum); assay: Test C pre-/postemergence greenhouse test, plant response rating 0-100; settings: Lolium multiflorum; for pest or weed control at 62 g/ha: 62 g ai/ha; for pest or weed control at 125 g/ha: 125 g ai/ha; for pest or weed control at 250 g/ha: 250 g ai/ha; for pest or weed control at 500 g/ha: 500 g ai/ha
From the text: (§1) Seeds of plant species selected from blackgrass (Alopecurus myosuroides), Italian ryegrass (Lolium multiflorum), winter wheat (Triticum aestivum), galium (catchweed bedstraw, Galium aparine), corn (Zea mays), large (Lg) crabgrass (Digitaria sanguinalis), giant foxtail (Setaria faberii), johnsongrass (Sorghum halepense), lambsquarters (Chenopodium album), morningglory (Ipomoea coccinea), yellow nutsedge (Cyperus esculentus), pigweed (Amaranthus retroflexus), ragweed (common ragweed, Ambrosia elatior), soybean (Glycine max), barnyardgrass (Echinochloa crus-galli), oilseed rape (Brassica napus), waterhemp (common waterhemp, Amaranthus rudis), and velvetleaf (Abutilon theophrasti) were planted into a blend of loam soil and sand and treated preemergence with test chemicals formulated in a non-phytotoxic solvent mixture which included a surfactant.
(§2) At the same time, plants selected from these crop and weed species and also winter barley (Hordeum vulgare), bermudagrass (Cynodon dactylon), downy bromegrass (Bromus tectorum), canarygrass (Phalaris minor), cocklebur (common cocklebur, Xanthium strumarium), woolly cupgrass (Eriochloa villosa), deadnettle (henbit deadnettle, Lamium amplexicaule), green foxtail (Setaria viridis), goosegrass (Eleusine indica), surinam grass (Brachiaria decumbens), windgrass (Apera spica-venti), chickweed (common chickweed, Stellaria media), kochia (Kochia scoparia), and wild oat (Avena fatua), were planted in pots containing Redi-Earth® planting medium (Scotts Company, 14111 Scottslawn Road, Marysville, Ohio 43041) comprising spaghnum peat moss, vermiculite, wetting agent and starter nutrients and treated with postemergence applications of test chemicals formulated in the same manner. Plants ranged in height from 2 to 18 cm (1- to 4-leaf stage) for postemergence treatments. Treated plants and controls were maintained in a greenhouse for 13 to 15 days, after which time all species were compared to controls and visually evaluated. Plant response ratings, summarized in Table C, are based on a scale of 0 to 100 where 0 is no effect and 100 is complete control. A dash (-) response means no test result.

[2] = test system: ragweed (common ragweed, Ambrosia elatior); assay: as above; settings: Ambrosia artemisiifolia; for pest or weed control at 62 g/ha: 62 g ai/ha; for pest or weed control at 125 g/ha: 125 g ai/ha; for pest or weed control at 250 g/ha: 250 g ai/ha
From the text: as §1, §2

[3] = test system: yellow nutsedge (Cyperus esculentus); assay: as above; settings: Cyperus; for pest or weed control at 62 g/ha: 62 g ai/ha; for pest or weed control at 125 g/ha: 125 g ai/ha; for pest or weed control at 250 g/ha: 250 g ai/ha; for pest or weed control at 500 g/ha: 500 g ai/ha
From the text: as §1, §2

[4] = test system: galium (catchweed bedstraw, Galium aparine); assay: as above; settings: Galium; for pest or weed control at 62 g/ha: 62 g ai/ha; for pest or weed control at 125 g/ha: 125 g ai/ha; for pest or weed control at 250 g/ha: 250 g ai/ha; for pest or weed control at 500 g/ha: 500 g ai/ha
From the text: as §1, §2

[5] = test system: large (Lg) crabgrass (Digitaria sanguinalis); assay: as above; settings: Digitaria sanguinalis; for pest or weed control at 62 g/ha: 62 g ai/ha; for pest or weed control at 125 g/ha: 125 g ai/ha; for pest or weed control at 250 g/ha: 250 g ai/ha; for pest or weed control at 500 g/ha: 500 g ai/ha
From the text: as §1, §2

[6] = test system: velvetleaf (Abutilon theophrasti); assay: Test A pre-/postemergence greenhouse herbicide test, visual injury rating 0-100; settings: Abutilon theophrasti, 240 h, read-out: Plant response rating (0 to 100 scale), Velvetleaf; for pest or weed control at 500 g/ha: 500 g ai/ha
Summary of the method: (§3)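 Planting in a loam and sand mixture preceded a directed preemergence soil spray; postemergence spray was applied concurrently to one- to two-leaf plants. After roughly 10 days under glass, injury is scored visually against untreated controls, 0–100.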

[7] = test system: corn (Zea mays); assay: as above; settings: for plant injury at 500 g/ha: 500 g ai/ha
Summary of the method: as §3

[8] = test system: barnyardgrass (Echinochloa crus-galli); assay: as above; settings: for pest or weed control at 500 g/ha: 500 g ai/ha
Summary of the method: as §3

[9] = test system: pigweed (Amaranthus retroflexus); assay: as above; settings: for pest or weed control at 500 g/ha: 500 g ai/ha
Summary of the method: as §3

[10] = test system: giant foxtail (Setaria faberii); assay: as above; settings: for pest or weed control at 500 g/ha: 500 g ai/ha
Summary of the method: as §3

[11] = test system: wheat (Triticum aestivum); assay: as above; settings: for plant injury at 500 g/ha: 500 g ai/ha
Summary of the method: as §3

[12] = test system: large (Lg) crabgrass (Digitaria sanguinalis); assay: as above; settings: for pest or weed control at 500 g/ha: 500 g ai/ha
Summary of the method: as §3

[13] = test system: morningglory (Ipomoea spp.); assay: as above; settings: for pest or weed control at 500 g/ha: 500 g ai/ha
Summary of the method: as §3

[14] = post-emergence, Postemergence, read-out: Plant response rating (0 to 100), Ryegrass, Italian
[15] = post-emergence, Postemergence, scale 0 to 100
[16] = pre-emergence, Preemergence, read-out: Plant response rating, Ryegrass, Italian
[17] = post-emergence, Postemergence, read-out: Plant response rating (0 to 100), Ragweed
[18] = pre-emergence, Preemergence, read-out: Plant response rating, Ragweed
[19] = post-emergence, Postemergence, read-out: Plant response rating (0 to 100), Nutsedge, Yellow
[20] = pre-emergence, Preemergence, read-out: Plant response rating, Nutsedge, Yellow
[21] = post-emergence, Postemergence, read-out: Plant response rating (0 to 100), Galium
[22] = pre-emergence, Preemergence, read-out: Plant response rating, Galium
[23] = post-emergence, Postemergence, read-out: Plant response rating (0 to 100), Crabgrass, Large
[24] = pre-emergence, Preemergence, read-out: Plant response rating, Crabgrass, Large

## COC(OC)(c1ccccc1)c1c[nH]nc1-c1cc(Cl)cc(Cl)c1 [Compound 13, 3-(3,5-dichlorophenyl)-4-(dimethoxyphenylmethyl)-1H-pyrazole]
[1]; [14]
  pest or weed control at 62 g/ha: 0%
  pest or weed control at 125 g/ha: 0%
[1]; [15]
  pest or weed control at 250 g/ha: 0%
  pest or weed control at 500 g/ha: 0%
[1]; [16]
  pest or weed control at 62 g/ha: 0%
  pest or weed control at 125 g/ha: 0%
[1]; pre-emergence, Preemergence
  pest or weed control at 250 g/ha: 0%
  pest or weed control at 500 g/ha: 0%
[2]; [17]
  pest or weed control at 62 g/ha: 50%
  pest or weed control at 125 g/ha: 50%
[2]; [15]
  pest or weed control at 250 g/ha: 75%
[2]; post-emergence, Postemergence, 500 g ai/ha, scale 0 to 100
  pest or weed control at 500 g/ha: 80%
[2]; [18]
  pest or weed control at 62 g/ha: 85%
  pest or weed control at 125 g/ha: 100%
[2]; pre-emergence, Preemergence
  pest or weed control at 250 g/ha: 100%
[3]; [19]
  pest or weed control at 62 g/ha: 0%
  pest or weed control at 125 g/ha: 0%
[3]; [15]
  pest or weed control at 250 g/ha: 0%
  pest or weed control at 500 g/ha: 0%
[3]; [20]
  pest or weed control at 62 g/ha: 0%
  pest or weed control at 125 g/ha: 0%
[3]; pre-emergence, Preemergence
  pest or weed control at 250 g/ha: 0%
  pest or weed control at 500 g/ha: 0%
[4]; [21]
  pest or weed control at 62 g/ha: 0%
  pest or weed control at 125 g/ha: 0%
[4]; [15]
  pest or weed control at 250 g/ha: 40%
  pest or weed control at 500 g/ha: 10%
[4]; [22]
  pest or weed control at 62 g/ha: 60%
  pest or weed control at 125 g/ha: 0%
[4]; pre-emergence, Preemergence
  pest or weed control at 250 g/ha: 30%
  pest or weed control at 500 g/ha: 0%
[5]; [23]
  pest or weed control at 62 g/ha: 0%
  pest or weed control at 125 g/ha: 10%
[5]; [15]
  pest or weed control at 250 g/ha: 10%
  pest or weed control at 500 g/ha: 0%
[5]; [24]
  pest or weed control at 62 g/ha: 0%
  pest or weed control at 125 g/ha: 0%
[5]; pre-emergence, Preemergence
  pest or weed control at 250 g/ha: 0%
  pest or weed control at 500 g/ha: 0%
[6]; post-emergence, Postemergence, 125 g ai/ha
  pest or weed control at 125 g/ha: 80%
[6]; post-emergence, Postemergence
  pest or weed control at 500 g/ha: 90%
[6]; pre-emergence, Preemergence
  pest or weed control at 500 g/ha: 70%
[7]; Preemergence, 125 g ai/ha
  Corn plant response rating (0 = no effect, 100 = complete control): 0
[7]; Zea mays, post-emergence, 240 h, Postemergence, 125 g ai/ha, read-out: Plant response rating (0 to 100 scale), Corn
  plant injury at 125 g/ha: 0%
[7]; Zea mays, post-emergence, 240 h, Postemergence, read-out: Plant response rating (0 to 100 scale), Corn
  plant injury at 500 g/ha: 0%
[7]; Zea mays, pre-emergence, 240 h, Preemergence, read-out: Plant response rating (0 to 100 scale), Corn
  plant injury at 500 g/ha: 0%
[8]; Echinochloa crus-galli, post-emergence, 240 h, Postemergence, 125 g ai/ha, read-out: Plant response rating (0 to 100 scale), Barnyardgrass
  pest or weed control at 125 g/ha: 0%
[8]; Echinochloa crus-galli, post-emergence, 240 h, Postemergence, read-out: Plant response rating (0 to 100 scale), Barnyardgrass
  pest or weed control at 500 g/ha: 0%
[8]; Echinochloa crus-galli, pre-emergence, 240 h, Preemergence, read-out: Plant response rating (0 to 100 scale), Barnyardgrass
  pest or weed control at 500 g/ha: 0%
[8]; Preemergence, 125 g ai/ha
  Barnyardgrass plant response rating (0 = no effect, 100 = complete control): 0
[9]; Amaranthus retroflexus, post-emergence, 240 h, Postemergence, 125 g ai/ha, read-out: Plant response rating (0 to 100 scale), Pigweed
  pest or weed control at 125 g/ha: 90%
[9]; Amaranthus retroflexus, post-emergence, 240 h, Postemergence, read-out: Plant response rating (0 to 100 scale), Pigweed
  pest or weed control at 500 g/ha: 100%
[9]; Amaranthus retroflexus, pre-emergence, 240 h, Preemergence, read-out: Plant response rating (0 to 100 scale), Pigweed
  pest or weed control at 500 g/ha: 100%
[9]; Preemergence, 125 g ai/ha
  Pigweed plant response rating (0 = no effect, 100 = complete control): 70
[10]; Preemergence, 125 g ai/ha
  Foxtail, Giant plant response rating (0 = no effect, 100 = complete control): 0
[10]; Setaria faberi, post-emergence, 240 h, Postemergence, 125 g ai/ha, read-out: Plant response rating (0 to 100 scale), Foxtail, Giant
  pest or weed control at 125 g/ha: 0%
[10]; Setaria faberi, post-emergence, 240 h, Postemergence, read-out: Plant response rating (0 to 100 scale), Foxtail, Giant
  pest or weed control at 500 g/ha: 0%
[10]; Setaria faberi, pre-emergence, 240 h, Preemergence, read-out: Plant response rating (0 to 100 scale), Foxtail, Giant
  pest or weed control at 500 g/ha: 0%
[11]; Preemergence, 125 g ai/ha
  Wheat plant response rating (0 = no effect, 100 = complete control): 0
[11]; Triticum aestivum, post-emergence, 240 h, Postemergence, 125 g ai/ha, read-out: Plant response rating (0 to 100 scale), Wheat
  plant injury at 125 g/ha: 0%
[11]; Triticum aestivum, post-emergence, 240 h, Postemergence, read-out: Plant response rating (0 to 100 scale), Wheat
  plant injury at 500 g/ha: 0%
[11]; Triticum aestivum, pre-emergence, 240 h, Preemergence, read-out: Plant response rating (0 to 100 scale), Wheat
  plant injury at 500 g/ha: 0%
[12]; Digitaria sanguinalis, post-emergence, 240 h, Postemergence, 125 g ai/ha, read-out: Plant response rating (0 to 100 scale), Crabgrass, Large
  pest or weed control at 125 g/ha: 0%
[12]; Digitaria sanguinalis, post-emergence, 240 h, Postemergence, read-out: Plant response rating (0 to 100 scale), Crabgrass, Large
  pest or weed control at 500 g/ha: 0%
[12]; Digitaria sanguinalis, pre-emergence, 240 h, Preemergence, read-out: Plant response rating (0 to 100 scale), Crabgrass, Large
  pest or weed control at 500 g/ha: 0%
[12]; Preemergence, 125 g ai/ha
  Crabgrass, Large plant response rating (0 = no effect, 100 = complete control): 0
[13]; Ipomoea, post-emergence, 240 h, Postemergence, 125 g ai/ha, read-out: Plant response rating (0 to 100 scale), Morningglory
  pest or weed control at 125 g/ha: 0%
[13]; Ipomoea, post-emergence, 240 h, Postemergence, read-out: Plant response rating (0 to 100 scale), Morningglory
  pest or weed control at 500 g/ha: 0%
[13]; Ipomoea, pre-emergence, 240 h, Preemergence, read-out: Plant response rating (0 to 100 scale), Morningglory
  pest or weed control at 500 g/ha: 0%
[13]; Preemergence, 125 g ai/ha
  Morningglory plant response rating (0 = no effect, 100 = complete control): 0
